Measurements reported in patent publication US12599592B2, “Therapeutic small molecules for treatment of pulmonary hypertension” (UNIVERSITY OF PITTSBURGH—OF THE COMMONWEALTH SYSTEM OF …, priority 2020, dated 2026).

Tests used:
[1] = tested on: PASMCs; assay: Apoptosis (caspase 3/7) in PASMCs; format: cell-based, human; settings: IL-6/sIL-6R + hypoxia
Description: (§1) In IL-6/sIL-6R+hypoxia experiments, a human recombinant IL-6/IL-6R alpha protein chimera (25 ng/ml, Millipore) was administered at 70-80% confluency for 48 h in complete media along with vehicle control (DMSO, Sigma-41639). BRD2889 (1 uM) vs. vehicle control were added, as indicated, and placed into a hypoxia chamber for 24 h. The hypoxia chamber (modular incubator chamber) was obtained from Billups-Rothenberg Inc. (Del Mar, Calif) and placed in regulated CO2 incubator at 37° C.
Cellular apoptosis: Caspase-3/7 activity was quantified using the Caspase-Glo 3/7 Assay (Promega), according to manufacturer's instructions. Caspase-3/7 activity was normalized to total protein content determined by BCA method (Thermo Fisher Scientific).

[2] = tested on: C43 genes (ISCU, mTOR); EDN1, VCAM1, ICAM1; assay: RT-qPCR of Cluster 43 and proinflammatory genes in PAECs; format: cell-based, human
Description: as §1, with “BRD2889 (1 uM) vs. vehicle control were added, as indicated, and placed into a hypoxia chamber for 24 h.” left out
RT-qPCR analysis: Cells were lysis in 1 ml of QiaZol reagent (Qiagen). Total RNA content was extracted using the RNeasy kit (Qiagen), according to the manufacturer's instructions. Total RNA concentration was determined using a BioTek Synergy multimode plate reader. Messenger RNAs were reverse transcribed to generate cDNA using the Multiscript RT kit (Thermo Fisher Scientific). cDNA for specific gene targets was amplified and quantified via fluorescently-labeled Taqman primer sets and Taqman fast advanced master mix (Thermo Fisher Scientific) using an Applied Biosystems QuantStudio 6 Flex Real-Time PCR System.

[3] = tested on: glutathionylated ISCU; assay: ISCU glutathionylation by immunoprecipitation and immunoblot in PAECs; format: cell-based, human; settings: hypoxic PAECs, BRD2889 1 mM, 24 h
Description: Protein stability assay: The proteasome inhibitor MG132 (M7449, Sigma) was stored at −20° C. at a concentration of 10 mM diluted in dimethyl sulfoxide (DMSO). PAECs were exposed to MG132 ([…]) vs. DMSO vehicle control for 2 hr under hypoxia, prior to harvesting of cellular lysate for immunoblotting.
(§2) Immunoblot and densitometry: Cells were lysed in RIPA buffer (Sigma) along with 1× protease inhibitor cocktail (Sigma). Protein lysate was resolved by gradient 4%-15% SDS-PAGE gels and transferred onto a 0.2 μm PVDF membrane (Bio-Rad). Membranes were blocked in 5% non-fat milk in 1×PBST buffer for one hour at room temperature. Later, they were incubated in the presence of the primary antibody overnight at 4° C. and then appropriate HRP-conjugated secondary antibodies (Life Technologies). […] The images were later quantified using AlphaEaseFC software (Alpha Innotech).
Immunoprecipitation: PAECs were transfected with the indicated combinations of siRNAs by Lipofectamine 2000 (Thermo Fisher Scientific) according to the manufacturer's instructions and/or treated with BRD2889 ([…], 24 h). […] After extensive washing, the immunoprecipitated proteins were analyzed by immunoblotting with the indicated antibodies.

[4] = tested on: SU5416-hypoxic pulmonary arterial hypertension rats; assay: SU5416-hypoxia pulmonary arterial hypertension rat model; format: in vivo, Sprague-Dawley rats
Description: Briefly, 10 week old male Sprague-Dawley rats were injected i.p. with 20 mg/kg of SU5416 (Sigma), placed in normobaric hypoxia (10% O2) for 3 weeks and then transferred to normoxia for 2 weeks. During hypoxic exposure, chambers were opened twice a week for cleaning and replenishment of food and water. […] For BRD2889 vs. vehicle control dosing, i.p. injections every 5 days (5 mg/kg) were administered during the final two weeks of normoxia. Oxygen concentrations were continuously monitored with blood gas analyzers.
Following euthanasia, right ventricle/[left ventricle+septum]
Measurement of GST activity: The GST activity from lung tissue and PAECs was assayed using GST assay kit (Cayman, MI, USA) per the manufacturer's instructions.
Rodent echocardiography: Echocardiography was performed using a 15-45 MHz transthoracic transducer and a Visual Sonics Vevo 3100 system (Fujifilm). Inhaled isoflurane anesthesia was used at 2% in 100% O2 during positioning and hair removal and then decreased to isoflurane 0.8% during imaging.

[5] = tested on: ISCU; assay: Immunoblot of ISCU and GSTP1 in PASMCs; format: cell-based, human; settings: BRD2889 1 uM
Description: as §1
as §2, with “Technologies). The following antibodies were used: human LGALS8 (AF1305, RnD Systems), mouse/rat Lgals8 (ab69631, Abcam), pSTAT1 (ab29045, Abcam) and STAT1 (ab47425, Abcam), GSTP1 (ab153949, Abcam), ISCU (14812-1-AP, Prointech), Glutathione (ab19534, Abcam), HIF2A (NB100-122, Novous), α-Tubulin (CP06, Millipore sigma), and ACTB (sc-47778, Santa Cruz).” for “Technologies).”

[6] = BRD2889 5 mg/kg i.p. every 5 days

Structure (SMILES): COc1ccc(C#CC2CCCN(C(=O)/C=C/c3cc(OC)c(OC)c(OC)c3)C2=O)cc1 (stereo not shown) [BRD2889]
- apoptosis [1]: only subtly changed
- inflammatory gene transcripts (EDN1, VCAM1, ICAM1) ([2]; IL-6/sIL-6R + hypoxia): normalized this upregulation
- C43 genes MID2, BANP, AGTRAP transcripts ([2]; hypoxia 48 hrs, BRD2889 5 uM): unaffected in hypoxia
- ISCU transcript (RT-qPCR) ([2]; hypoxia 48 hrs, BRD2889 5 uM): fully reversing the hypoxic decrease
- mTOR transcript (RT-qPCR) ([2]; hypoxia 48 hrs, BRD2889 5 uM): partially reversing the decrease
- ISCU glutathionylation (α-GSH immunoblot after α-ISCU pulldown) [3]: converse reduction of glutathionylation
- Fulton index (RV/LV+S) [4, 6]: reduced
- ISCU in CD31+ endothelium [4, 6]: increased
- arteriolar muscularization [4, 6]: reduced
- cleaved caspase-3 (CC-3) in CD31+ endothelium [4, 6]: decreased
- right ventricular systolic pressure (RVSP) [4, 6]: reduced
- lung GST activity ([4]; BRD2889 5 mg/kg i.p. every 5 days, final 2 weeks in normoxia): decreased
- left ventricular function (LVPW thickness, LVEF, LVFS) ([4]; BRD2889 vs vehicle): did not exhibit altered left ventricular function
- ascites ([4]; three SU5416-hypoxic rats treated with drug): accumulation of mild ascites
- GSTP1 protein expression ([5]; IL-6/R + hypoxia): did not affect
- ISCU protein ([5]; IL-6/sIL-6R + hypoxia): failed to rescue
